Data as given in the supplement of paper PMC4977894.
± gives the standard deviation of the averaged measurements.

How the values were obtained:
[1] = system: Homo sapiens (human subject panel, olfactory perception); test: perceived odor pleasantness rating (rating 0-100); higher = more pleasant
Protocol: (§1)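 Human olfactory psychophysics. 55 healthy subjects (after excluding 6 low performers) sniffed 1 mL of each odorant diluted in paraffin oil (vials, two dilutions per molecule, 20 molecules presented twice). Each subject rated intensity, pleasantness and familiarity on a 0-100 slider, starting at 50 and required to move. Ratings were given only when the subject reported detecting a smell; per-subject ratings are averaged over subjects.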

[2] = system: Homo sapiens (human subject panel, olfactory perception); test: perceived odor intensity rating (rating 0-100); higher = stronger perceived smell
Protocol: as §1

[3] = system: Homo sapiens (human subject panel, olfactory perception); test: perceived odor familiarity rating (rating 0-100); higher = more familiar
Protocol: as §1

[4] = odor dilution in paraffin oil: 1/10
[5] = odor dilution in paraffin oil: 1/1,000
[6] = odor dilution in paraffin oil: 1/100,000
[7] = odor dilution in paraffin oil: 1/10,000,000

SMILES | perceived odor pleasantness rating [1, 4] | perceived odor pleasantness rating [1, 5] | perceived odor intensity rating [2, 4] | perceived odor intensity rating [2, 5] | perceived odor familiarity rating [3, 4] | perceived odor familiarity rating [3, 5] | perceived odor pleasantness rating [1, 6] | perceived odor intensity rating [2, 6] | perceived odor familiarity rating [3, 6] | perceived odor pleasantness rating [1, 7] | perceived odor intensity rating [2, 7] | perceived odor familiarity rating [3, 7]
CC(=O)c1cc2c(cc1C)C(C)(C)C(C)CC2(C)C (configuration not stated) [6-Acetyl-1,1,2,4,4,7-Hexamethyltetralin] | 67.4 ± 24 | 67.7 ± 21 | 51.7 ± 28 | 29.8 ± 28 | 57.3 ± 30 | 49.1 ± 31 | – | – | – | – | – | –
CC(=O)CCC=C(C)C [6-Methyl-5-hepten-2-one] | – | 48.6 ± 30 | – | 70.7 ± 23 | – | 51.9 ± 31 | 52.6 ± 23 | 22.4 ± 25 | 31.9 ± 29 | – | – | –
Cc1ccc2oc(=O)ccc2c1 [6-Methylcoumarin] | 40.8 ± 32 | 53.9 ± 28 | 80.1 ± 19 | 62.9 ± 27 | 48.9 ± 32 | 55.2 ± 30 | – | – | – | – | – | –
CCCCCC(=O)CCCCC [6-Undecanone] | – | 49.5 ± 27 | – | 43.3 ± 30 | – | 43.3 ± 31 | 52.7 ± 29 | 8.22 ± 16 | 32.9 ± 32 | – | – | –
Cc1ccc2ncccc2c1 [6-methyl quinoline] | – | 36.7 ± 27 | – | 68.2 ± 27 | – | 44 ± 30 | 60.4 ± 23 | 50.9 ± 30 | 44.3 ± 31 | – | – | –
COc1ccc2ccc(=O)oc2c1 [7-Methoxycoumarin] | 62 ± 25 | 59.3 ± 25 | 62 ± 26 | 42.3 ± 24 | 52 ± 30 | 47.2 ± 29 | – | – | – | – | – | –
CC1(C)C2CC=C(C=O)C1C2 [(1R)-(-)-Myrtenal] | – | – | – | – | – | – | 40.3 ± 25 | 62.4 ± 26 | 48.3 ± 31 | 50.1 ± 24 | 33.8 ± 31 | 40.7 ± 33
CC1CC[C@H](C(C)C)[C@@H](O)C1 (some centres not stated) [( + )-menthol] | 55.3 ± 28 | 52 ± 24 | 83.4 ± 14 | 51 ± 31 | 73.7 ± 26 | 51.8 ± 29 | – | – | – | – | – | –
C=C(C)[C@@H]1CC[C@@H](C)C[C@H]1O [(-)-Isopulegol] | 56.9 ± 27 | 45.1 ± 24 | 81.1 ± 17 | 24.4 ± 27 | 73.2 ± 29 | 37.8 ± 32 | – | – | – | – | – | –
CC[C@H](C)O [(S)-( + )-2-butanol] | – | 50.2 ± 22 | – | 16.4 ± 22 | – | 33.1 ± 30 | 50.7 ± 21 | 24.7 ± 27 | 40.9 ± 30 | – | – | –
CCOC(C)OCC [Acetal] | – | 42.5 ± 24 | – | 48.7 ± 34 | – | 44.7 ± 28 | 47.9 ± 22 | 43.1 ± 33 | 35.2 ± 28 | – | – | –
COc1ccc(C(C)=O)cc1 [Acetanisole] | 53.3 ± 28 | 68.8 ± 19 | 82.2 ± 16 | 44.1 ± 28 | 56.5 ± 30 | 50 ± 26 | – | – | – | – | – | –
COc1cc(C(C)=O)ccc1O [Acetovanillone] | 45.7 ± 25 | 55.1 ± 21 | 64 ± 28 | 35 ± 32 | 47.6 ± 29 | 41 ± 30 | – | – | – | – | – | –
O=C(O)CCCCC(=O)O [Adipic acid] | 52.7 ± 24 | 38.5 ± 18 | 35.7 ± 28 | 14 ± 16 | 43.5 ± 27 | 34 ± 29 | – | – | – | – | – | –
C=CCOC(=O)C(CC)CC [Allyl 2-ethylbutyrate] | – | 51.5 ± 28 | – | 68.5 ± 28 | – | 51.6 ± 29 | 67 ± 19 | 33.9 ± 28 | 44.1 ± 30 | – | – | –
C=CCOC(=O)c1ccco1 [Allyl 2-furoate] | – | 31.9 ± 23 | – | 60.6 ± 29 | – | 40.9 ± 29 | 41.8 ± 21 | 27 ± 28 | 39.9 ± 27 | – | – | –
C=CCSCC=C [Allyl Sulfide] | – | – | – | – | – | – | 37.2 ± 25 | 43.2 ± 35 | 40.8 ± 30 | 42.7 ± 23 | 27.3 ± 24 | 35.4 ± 25
